According to ChEMBL document CHEMBL5291721, “A preclinical secondary pharmacology resource illuminates target-adverse drug reaction associations of marketed drugs” (Nat Commun, 2023):

Assays:
Mu-type opioid receptor = Mu-type opioid receptor (Homo sapiens, UniProt P35372)
Progesterone receptor = biological target: T1, Progesterone receptor (Homo sapiens, UniProt P06401); assay type: functional
T1 sequence (P06401 whole entry): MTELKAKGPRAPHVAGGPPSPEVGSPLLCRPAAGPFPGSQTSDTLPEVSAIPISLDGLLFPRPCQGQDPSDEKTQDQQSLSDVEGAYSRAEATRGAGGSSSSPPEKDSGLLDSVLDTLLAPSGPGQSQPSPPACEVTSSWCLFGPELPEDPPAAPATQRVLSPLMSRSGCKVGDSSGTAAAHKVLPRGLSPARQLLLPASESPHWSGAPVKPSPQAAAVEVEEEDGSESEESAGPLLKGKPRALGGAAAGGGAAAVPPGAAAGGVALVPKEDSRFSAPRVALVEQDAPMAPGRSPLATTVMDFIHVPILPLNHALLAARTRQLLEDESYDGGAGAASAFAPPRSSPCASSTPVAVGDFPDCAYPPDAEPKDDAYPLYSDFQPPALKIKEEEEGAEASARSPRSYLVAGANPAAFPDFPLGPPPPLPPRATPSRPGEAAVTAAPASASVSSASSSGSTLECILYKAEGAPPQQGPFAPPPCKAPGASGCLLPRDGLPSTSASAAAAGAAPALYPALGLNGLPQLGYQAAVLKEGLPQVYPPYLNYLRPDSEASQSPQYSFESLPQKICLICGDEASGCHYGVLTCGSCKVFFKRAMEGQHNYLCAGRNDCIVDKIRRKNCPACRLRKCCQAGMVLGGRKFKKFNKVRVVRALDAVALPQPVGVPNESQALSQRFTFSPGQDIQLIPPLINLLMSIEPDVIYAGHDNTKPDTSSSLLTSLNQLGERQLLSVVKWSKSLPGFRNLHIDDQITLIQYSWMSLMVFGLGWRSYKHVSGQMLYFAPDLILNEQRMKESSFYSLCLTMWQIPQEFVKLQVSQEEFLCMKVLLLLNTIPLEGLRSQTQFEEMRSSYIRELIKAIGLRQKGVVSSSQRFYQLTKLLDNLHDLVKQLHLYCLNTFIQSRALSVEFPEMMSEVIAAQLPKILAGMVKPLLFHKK

Vasopressin V1a receptor = Vasopressin V1a receptor (Homo sapiens, UniProt P37288)
Histamine H3 receptor = Histamine H3 receptor (Homo sapiens, UniProt Q9Y5N1)
[1] = biological target: T2, Alpha-2C adrenergic receptor (Homo sapiens, UniProt P18825); assay type: functional
T2 sequence (P18825 whole entry): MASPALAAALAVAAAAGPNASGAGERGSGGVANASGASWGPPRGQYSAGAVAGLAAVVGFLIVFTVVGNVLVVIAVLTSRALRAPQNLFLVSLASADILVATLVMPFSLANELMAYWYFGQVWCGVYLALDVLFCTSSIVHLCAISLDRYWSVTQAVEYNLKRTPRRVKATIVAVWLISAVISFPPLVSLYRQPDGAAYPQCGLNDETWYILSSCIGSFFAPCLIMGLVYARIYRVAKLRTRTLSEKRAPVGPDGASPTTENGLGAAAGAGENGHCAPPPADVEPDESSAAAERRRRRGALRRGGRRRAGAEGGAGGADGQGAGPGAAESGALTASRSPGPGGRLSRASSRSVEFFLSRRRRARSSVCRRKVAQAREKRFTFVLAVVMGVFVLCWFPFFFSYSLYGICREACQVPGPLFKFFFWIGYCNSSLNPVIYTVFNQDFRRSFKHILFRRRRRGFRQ

[2] = biological target: T3, Equilibrative nucleoside transporter 1 (Homo sapiens, UniProt Q99808)
T3 sequence (Q99808 whole entry): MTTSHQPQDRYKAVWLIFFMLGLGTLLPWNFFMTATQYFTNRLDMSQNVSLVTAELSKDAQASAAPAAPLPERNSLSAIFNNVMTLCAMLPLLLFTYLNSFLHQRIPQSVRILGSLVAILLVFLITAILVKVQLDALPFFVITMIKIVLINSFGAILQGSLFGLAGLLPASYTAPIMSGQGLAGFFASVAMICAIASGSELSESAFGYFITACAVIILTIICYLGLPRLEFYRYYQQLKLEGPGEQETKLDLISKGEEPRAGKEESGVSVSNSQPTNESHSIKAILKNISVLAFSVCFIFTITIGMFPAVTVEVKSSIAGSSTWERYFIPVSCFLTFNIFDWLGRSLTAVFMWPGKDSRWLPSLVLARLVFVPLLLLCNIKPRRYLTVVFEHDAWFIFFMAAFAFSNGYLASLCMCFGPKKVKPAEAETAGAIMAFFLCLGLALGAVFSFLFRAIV

Vasopressin V2 receptor = Vasopressin V2 receptor (Homo sapiens, UniProt P30518)
[3] = biological target: Glutamate receptor ionotropic, NMDA 1 (Rattus norvegicus, UniProt P35439)
[4] = biological target: T4, Alpha-1A adrenergic receptor (Homo sapiens, UniProt P35348); assay type: functional, cell-based
T4 sequence (P35348 whole entry): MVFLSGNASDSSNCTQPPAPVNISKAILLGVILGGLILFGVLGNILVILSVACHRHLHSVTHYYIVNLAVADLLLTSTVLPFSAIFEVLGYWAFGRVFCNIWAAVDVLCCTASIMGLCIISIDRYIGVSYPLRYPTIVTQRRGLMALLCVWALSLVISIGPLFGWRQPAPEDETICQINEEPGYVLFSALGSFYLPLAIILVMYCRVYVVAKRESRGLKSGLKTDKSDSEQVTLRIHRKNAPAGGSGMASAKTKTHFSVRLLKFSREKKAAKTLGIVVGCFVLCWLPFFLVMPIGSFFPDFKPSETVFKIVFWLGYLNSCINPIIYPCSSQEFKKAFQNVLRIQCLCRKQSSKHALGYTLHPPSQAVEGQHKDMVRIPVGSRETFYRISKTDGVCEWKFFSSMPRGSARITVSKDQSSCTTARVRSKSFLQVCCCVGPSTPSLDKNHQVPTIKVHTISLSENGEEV

[5] = biological target: T4, Alpha-1A adrenergic receptor; assay type: functional, cell-based; remark: listed apart in the source
[6] = biological target: Vascular endothelial growth factor receptor 2 (Homo sapiens, UniProt P35968); assay type: functional
Also: assay procedure not described here.

Sequence of Vasopressin V1a receptor (P37288 whole entry): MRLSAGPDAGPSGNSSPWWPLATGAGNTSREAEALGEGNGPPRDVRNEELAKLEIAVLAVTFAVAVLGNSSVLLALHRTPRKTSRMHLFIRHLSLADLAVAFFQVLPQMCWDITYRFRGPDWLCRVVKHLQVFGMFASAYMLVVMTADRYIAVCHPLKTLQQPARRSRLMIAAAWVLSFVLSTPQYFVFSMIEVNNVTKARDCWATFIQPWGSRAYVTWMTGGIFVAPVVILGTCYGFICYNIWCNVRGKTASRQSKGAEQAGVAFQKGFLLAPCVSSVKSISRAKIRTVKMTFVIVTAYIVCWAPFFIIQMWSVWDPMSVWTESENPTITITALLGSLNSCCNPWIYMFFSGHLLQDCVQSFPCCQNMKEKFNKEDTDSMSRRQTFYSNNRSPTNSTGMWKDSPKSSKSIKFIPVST
Sequence of Vasopressin V2 receptor (P30518 whole entry): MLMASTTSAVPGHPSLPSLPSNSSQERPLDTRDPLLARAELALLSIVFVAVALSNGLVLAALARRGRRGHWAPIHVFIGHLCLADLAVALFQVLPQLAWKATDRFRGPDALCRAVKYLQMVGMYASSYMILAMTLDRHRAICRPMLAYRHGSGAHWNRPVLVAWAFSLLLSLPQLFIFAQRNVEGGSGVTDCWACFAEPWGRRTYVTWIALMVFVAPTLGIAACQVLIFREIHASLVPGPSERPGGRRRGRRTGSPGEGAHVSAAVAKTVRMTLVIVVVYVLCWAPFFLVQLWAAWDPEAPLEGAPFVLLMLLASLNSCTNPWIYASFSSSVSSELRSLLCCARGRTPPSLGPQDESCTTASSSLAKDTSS
Sequence of Histamine H3 receptor (Q9Y5N1 whole entry): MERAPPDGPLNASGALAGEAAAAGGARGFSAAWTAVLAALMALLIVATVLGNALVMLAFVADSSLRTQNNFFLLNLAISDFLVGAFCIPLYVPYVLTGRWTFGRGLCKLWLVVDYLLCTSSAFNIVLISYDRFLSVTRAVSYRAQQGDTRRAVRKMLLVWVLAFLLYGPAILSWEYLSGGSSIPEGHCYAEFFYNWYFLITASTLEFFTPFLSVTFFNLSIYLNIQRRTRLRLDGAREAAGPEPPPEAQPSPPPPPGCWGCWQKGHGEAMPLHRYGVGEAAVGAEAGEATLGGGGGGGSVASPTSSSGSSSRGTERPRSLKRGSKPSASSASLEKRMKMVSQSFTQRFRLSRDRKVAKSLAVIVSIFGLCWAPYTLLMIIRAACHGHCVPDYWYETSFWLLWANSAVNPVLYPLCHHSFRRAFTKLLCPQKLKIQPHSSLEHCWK
Sequence of Mu-type opioid receptor (P35372 whole entry): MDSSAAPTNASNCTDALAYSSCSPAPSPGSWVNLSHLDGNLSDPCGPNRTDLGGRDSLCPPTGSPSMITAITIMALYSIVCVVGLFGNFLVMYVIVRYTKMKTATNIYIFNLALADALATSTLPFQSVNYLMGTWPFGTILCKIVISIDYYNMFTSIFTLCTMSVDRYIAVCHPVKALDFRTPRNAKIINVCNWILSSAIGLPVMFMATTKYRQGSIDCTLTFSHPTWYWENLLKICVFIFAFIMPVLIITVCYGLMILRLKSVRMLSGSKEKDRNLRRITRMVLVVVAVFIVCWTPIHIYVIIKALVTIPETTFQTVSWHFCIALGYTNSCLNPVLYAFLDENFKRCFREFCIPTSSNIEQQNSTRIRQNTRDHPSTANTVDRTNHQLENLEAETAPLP
Sequence of Vascular endothelial growth factor receptor 2 (P35968 whole entry): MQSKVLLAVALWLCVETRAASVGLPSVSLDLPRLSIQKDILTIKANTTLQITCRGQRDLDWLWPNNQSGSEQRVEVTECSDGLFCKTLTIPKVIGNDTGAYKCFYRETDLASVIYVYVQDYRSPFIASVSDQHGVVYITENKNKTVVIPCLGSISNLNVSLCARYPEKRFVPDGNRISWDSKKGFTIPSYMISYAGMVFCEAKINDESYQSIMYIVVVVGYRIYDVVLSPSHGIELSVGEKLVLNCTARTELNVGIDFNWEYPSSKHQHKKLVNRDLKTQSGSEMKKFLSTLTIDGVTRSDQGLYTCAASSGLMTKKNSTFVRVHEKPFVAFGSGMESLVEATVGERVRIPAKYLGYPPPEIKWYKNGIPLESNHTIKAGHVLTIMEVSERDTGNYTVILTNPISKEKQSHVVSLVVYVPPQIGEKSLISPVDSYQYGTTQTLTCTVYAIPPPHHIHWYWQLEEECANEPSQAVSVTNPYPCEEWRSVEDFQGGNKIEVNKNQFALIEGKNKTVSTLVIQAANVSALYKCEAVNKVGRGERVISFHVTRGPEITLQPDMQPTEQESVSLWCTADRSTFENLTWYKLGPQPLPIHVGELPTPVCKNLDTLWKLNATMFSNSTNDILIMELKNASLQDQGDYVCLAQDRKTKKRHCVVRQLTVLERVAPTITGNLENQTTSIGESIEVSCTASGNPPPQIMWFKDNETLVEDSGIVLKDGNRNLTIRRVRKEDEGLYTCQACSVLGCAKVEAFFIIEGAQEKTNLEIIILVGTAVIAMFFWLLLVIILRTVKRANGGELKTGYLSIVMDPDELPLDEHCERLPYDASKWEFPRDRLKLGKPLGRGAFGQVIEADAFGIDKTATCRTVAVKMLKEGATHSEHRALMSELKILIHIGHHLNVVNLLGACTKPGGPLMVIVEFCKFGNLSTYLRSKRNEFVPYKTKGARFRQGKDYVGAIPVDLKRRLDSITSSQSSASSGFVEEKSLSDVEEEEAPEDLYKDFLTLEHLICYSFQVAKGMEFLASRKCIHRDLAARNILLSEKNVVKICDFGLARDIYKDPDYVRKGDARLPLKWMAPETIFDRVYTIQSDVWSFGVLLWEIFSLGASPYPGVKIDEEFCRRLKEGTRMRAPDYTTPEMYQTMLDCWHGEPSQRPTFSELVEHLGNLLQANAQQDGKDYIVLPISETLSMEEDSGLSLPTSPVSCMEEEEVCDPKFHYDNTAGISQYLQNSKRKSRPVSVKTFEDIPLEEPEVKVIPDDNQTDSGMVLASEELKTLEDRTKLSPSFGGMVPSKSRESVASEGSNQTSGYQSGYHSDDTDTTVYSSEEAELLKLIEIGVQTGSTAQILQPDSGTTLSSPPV

| SMILES | AC50 (Mu-type opioid receptor) [µM] | AC50 (Progesterone receptor) [µM] | AC50 (Vasopressin V1a receptor) [µM] | AC50 (Histamine H3 receptor) [µM] | AC50 [1] [µM] | AC50 [2] [µM] | AC50 (Vasopressin V2 receptor) [µM] | AC50 [3] [µM] | AC50 [4] [µM] | AC50 [5] [µM] | AC50 [6] [µM] |
| --- | --- | --- | --- | --- | --- | --- | --- | --- | --- | --- | --- |
| CCCN(CCc1cccs1)[C@H]1CCc2c(O)cccc2C1 [ROTIGOTINE] | 8.6 | > 30 | > 30 | > 30 | 0.4 | 29 | – | – | – | – | – |
| Clc1cccc(Cl)c1N=C1NCCN1 [CLONIDINE] | > 30 | – | > 10 | > 10 | – | > 30 | > 30 | > 10 | – | – | – |
| NC(=O)c1ncn([C@@H]2O[C@H](CO)[C@@H](O)[C@H]2O)n1 [RIBAVIRIN] | > 30 | > 10 | – | > 10 | > 10 | > 30 | > 10 | > 10 | > 30 | – | – |
| [H]/N=C(\N/C(=N/[H])NCCCCCCNC(=N)NC(=N)Nc1ccc(Cl)cc1)Nc1ccc(Cl)cc1 [CHLORHEXIDINE] | 13 | 21.9 | 14.7 | – | 1.8 | > 30 | 3.9 | > 10 | 0.6 | – | – |
| CC(C)C[C@H](CN)CC(=O)O [PREGABALIN] | > 30 | > 30 | > 30 | > 30 | > 30 | > 30 | > 30 | > 30 | – | – | – |
| CC1(C)O[C@@H]2[C@@H](CO[C@@]3(COS(N)(=O)=O)OC(C)(C)O[C@@H]23)O1 [TOPIRAMATE] | > 10 | – | > 10 | > 10 | > 10 | > 30 | > 30 | > 10 | – | > 30 | – |
| Cc1cnc(NC(=O)C2=C(O)c3ccccc3S(=O)(=O)N2C)s1 [MELOXICAM] | > 10 | – | > 10 | > 10 | > 10 | > 30 | > 30 | > 10 | > 30 | – | – |
| O=C1CN2Cc3c(ccc(Cl)c3Cl)N=C2N1 [ANAGRELIDE] | > 30 | – | > 30 | > 10 | > 10 | > 30 | > 30 | > 10 | > 30 | – | – |
| CC[C@H]1OC(=O)[C@H](C)[C@@H](O[C@H]2C[C@@](C)(OC)[C@@H](O)[C@H](C)O2)[C@H](C)[C@@H](O[C@@H]2O[C@H](C)C[C@H](N(C)C)[C@H]2O)[C@](C)(O)C[C@@H](C)/C(=N\OCOCCOC)[C@H](C)[C@@H](O)[C@]1(C)O [ROXITHROMYCIN] | > 30 | > 30 | – | > 30 | > 30 | > 30 | – | – | > 30 | – | – |
| CC(=O)S[C@@H]1CC2=CC(=O)CC[C@]2(C)[C@H]2CC[C@@]3(C)[C@@H](CC[C@@]34CCC(=O)O4)[C@H]12 [SPIRONOLACTONE] | > 30 | – | > 30 | > 30 | > 30 | > 30 | > 30 | > 10 | > 30 | – | – |
| CNCC[C@H](Oc1cccc2ccccc12)c1cccs1 [DULOXETINE] | 12 | – | > 30 | – | 1.4 | > 30 | > 30 | > 10 | – | – | – |
| CC(=N)N1CC[C@H](SC2=C(C(=O)O)N3C(=O)[C@H]([C@@H](C)O)[C@H]3C2)C1 | > 300 | > 300 | > 300 | > 300 | > 300 | 60 | – | – | > 300 | – | – |
| CC(=O)Oc1ccccc1C(=O)Nc1ncc([N+](=O)[O-])s1 [NITAZOXANIDE] | – | > 30 | 17 | 10 | – | 1.9 | 14 | > 30 | 8.6 | > 10 | > 30 |
| CCOc1cc(CC(=O)N[C@@H](CC(C)C)c2ccccc2N2CCCCC2)ccc1C(=O)O [REPAGLINIDE] | > 30 | > 30 | > 30 | > 30 | > 30 | > 30 | – | – | > 30 | – | – |
| CN1C[C@H](C(=O)N[C@]2(C)O[C@@]3(O)[C@@H]4CCCN4C(=O)[C@H](Cc4ccccc4)N3C2=O)C[C@@H]2c3cccc4[nH]cc(c34)C[C@H]21 [DIHYDROERGOTAMINE] | > 30 | – | > 30 | > 10 | – | > 30 | > 30 | > 10 | – | – | – |
| Cn1c(=O)c2[nH]cnc2n(C)c1=O [THEOPHYLLINE] | > 30 | – | > 30 | > 10 | > 10 | > 30 | > 30 | > 10 | > 30 | > 30 | – |
| COc1ccnc(C[S+]([O-])c2nc3ccc(OC(F)F)cc3[nH]2)c1OC (stereo not drawn) [PANTOPRAZOLE] | > 30 | – | > 10 | > 10 | > 10 | > 30 | > 30 | > 10 | > 30 | – | – |
| CC1(C)O[C@@H]2C[C@H]3[C@@H]4C[C@H](F)C5=CC(=O)C=C[C@]5(C)[C@H]4[C@@H](O)C[C@]3(C)[C@]2(C(=O)CO)O1 [FLUNISOLIDE] | > 30 | > 3 | – | > 30 | > 30 | > 30 | – | – | 0.048 | – | – |
| C[C@H]1Oc2cc(cnc2N)-c2c(nn(C)c2C#N)CN(C)C(=O)c2ccc(F)cc21 [LORLATINIB] | > 30 | > 30 | > 30 | > 30 | > 30 | > 30 | – | – | > 30 | – | – |
| CCCCNc1ccc(C(=O)OCCN(C)C)cc1 [TETRACAINE] | > 10 | – | > 10 | > 10 | > 10 | > 30 | > 30 | > 10 | > 30 | > 30 | – |
